The target in the experiment is His-tagged recombinant human Gal-3 (hGal-3) (Homo sapiens, UniProt P17931). Put plainly: Gal-3 HTRF assay (His-tagged hGal-3 / B-ASF). In kind it is binding. Conditions: hGal-3 15 nM, B-ASF 15 nM, room temperature, three replicates. As to the method: • ASSAY BUFFER Composition: 25 mM HEPES, 100 mM NaCl, 0.005% Tween 20, 0.05% BSA prepared in sterile water (all reagents from Sigma) Controls: • Positive Control: 100% DMSO (1 μl)+His-tagged hGal-3 (20 μL)+B-ASF (20 μl)+Anti-His Terbium Antibody (5 μl)+Strep d2 Antibody (5 μl). • Negative Control: […] (1 μl)+His-tagged hGal-3 (20 μL)+Anti His Terbium Antibody (5 μl)+Strep d2 Aantibody (5 μl). Stocks Preparation:
PROTOCOL: The Gal-3 assays were performed in 384 white Opti plates in three replicates at room temperature with gentle shaking at 250-300 rpm From the original stocks, […] working stock concentrations of His-tagged recombinant human Gal-3 (hGal-3) and that of B-ASF were prepared. From the working stock, 20 μl of hGal-3 (15 nM) and 20 μl B-ASF (15 nM) were added to the plates. In Negative Control, only hGal-3 was added. A concentration range of 50× working stocks were prepared for the compounds in […]. Aliquots of 1 uL of the compounds were added to the wells and pre-incubated with 20 μl hGal-3 per well for 30 minutes Then 20 μl B-ASF were added and incubated for another 1 hour. To detect the signal, 5 μL (final conc. of 1.0 nM) terbium labelled Anti-His antibody was added and incubated for 30 min followed by adding 5 μL (final conc. of 20 nM) Streptavidin d2 and incubation for another 1 hour. The assay signal was detected using HTRF screen protocol (Excitation wavelength=340 nm, emission wavelength=615 nm/665 nm) on Envision 2104 Multilabel Reader. Data analysed using Toolset and Curve Master. Results are reported in the experimental section (IC50 in μM).
For orientation: TR-FRET usually uses a lanthanide donor and a delayed reading to cut background.

His-tagged recombinant human Gal-3 (hGal-3), sequence (P17931 whole entry): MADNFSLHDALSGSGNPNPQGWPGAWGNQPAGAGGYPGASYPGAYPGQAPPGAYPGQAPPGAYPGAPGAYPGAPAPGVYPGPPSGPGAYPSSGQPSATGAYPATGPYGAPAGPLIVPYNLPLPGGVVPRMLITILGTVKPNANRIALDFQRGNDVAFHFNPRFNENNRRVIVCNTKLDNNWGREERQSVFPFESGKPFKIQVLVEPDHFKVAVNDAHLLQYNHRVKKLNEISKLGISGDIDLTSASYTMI

For orientation: IC50 means the concentration at which inhibition is half-maximal. Regarding `Cc1nc(C2OC(CO)C(O)C(n3cc(-c4cc(F)c(F)c(F)c4)nn3)C2OCC(=O)NCCCCCNC(=O)COC2C(c3nc(C)nn3-c3cc(Cl)ccc3Cl)OC(CO)C(O)C2n2cc(-c3cc(F)c(F)c(F)c3)nn2)n(-c2cc(Cl)ccc2Cl)n1` (stereo not drawn) [Example 2], the half-inhibitory concentration (IC50) was found to be 1 nM.

Turning to `Cc1nc([C@H]2O[C@@H](CO)[C@@H](O)[C@@H](n3cc(-c4ccc(Cl)c(F)c4)nn3)[C@@H]2OCC(=O)NCCCCCNC(=O)CO[C@@H]2[C@@H](n3cc(-c4ccc(Cl)c(F)c4)nn3)[C@@H](O)[C@@H](CO)O[C@H]2c2nc(C)nn2-c2cc(Cl)ccc2Cl)n(-c2cc(Cl)ccc2Cl)n1` [Example 5], the concentration for half-maximal inhibition (IC50) stood at 10 nM. Next, `Cc1nc([C@H]2O[C@@H](CO)[C@@H](O)[C@@H](n3cc(-c4cc(F)c(Cl)c(F)c4)nn3)[C@@H]2OCC(=O)NCCCNC(=O)CO[C@@H]2[C@@H](n3cc(-c4cc(F)c(Cl)c(F)c4)nn3)[C@@H](O)[C@@H](CO)O[C@H]2c2nc(C)nn2-c2cc(Cl)ccc2C(F)(F)F)n(-c2cc(Cl)ccc2C(F)(F)F)n1` [Example 6]: 1 nM; `Cc1nc([C@H]2O[C@@H](CO)[C@@H](O)[C@@H](n3cc(-c4cc(F)c(Cl)c(F)c4)nn3)[C@@H]2OCC(=O)NCCCCNC(=O)CO[C@@H]2[C@@H](n3cc(-c4cc(F)c(Cl)c(F)c4)nn3)[C@@H](O)[C@@H](CO)O[C@H]2c2nc(C)nn2-c2cc(Cl)ccc2C(F)(F)F)n(-c2cc(Cl)ccc2C(F)(F)F)n1` [Example 7]: 1 nM; `Cc1nc([C@H]2O[C@@H](CO)[C@@H](O)[C@@H](n3cc(-c4cc(F)c(Cl)c(F)c4)nn3)[C@@H]2OCC(=O)NCCCCCNC(=O)CO[C@@H]2[C@@H](n3cc(-c4cc(F)c(Cl)c(F)c4)nn3)[C@@H](O)[C@@H](CO)O[C@H]2c2nc(C)nn2-c2cc(Cl)ccc2C(F)(F)F)n(-c2cc(Cl)ccc2C(F)(F)F)n1` [Example 8]: 1 nM.

`Cc1nc([C@H]2O[C@@H](CO)[C@@H](O)[C@@H](n3cc(-c4cc(F)c(Cl)c(F)c4)nn3)[C@@H]2OCC(=O)NCCCCCCNC(=O)CO[C@@H]2[C@@H](n3cc(-c4cc(F)c(Cl)c(F)c4)nn3)[C@@H](O)[C@@H](CO)O[C@H]2c2nc(C)nn2-c2cc(Cl)ccc2Cl)n(-c2cc(Cl)ccc2Cl)n1` [Example 9]: the half-maximal inhibitory concentration (IC50) amounted to 6 nM.

Consider `Cc1nc([C@H]2O[C@@H](CO)[C@@H](O)[C@@H](n3cc(-c4cc(F)c(Cl)c(F)c4)nn3)[C@@H]2OCC(=O)NCCCCCCCNC(=O)CO[C@@H]2[C@@H](n3cc(-c4cc(F)c(Cl)c(F)c4)nn3)[C@@H](O)[C@@H](CO)O[C@H]2c2nc(C)nn2-c2cc(Cl)ccc2Cl)n(-c2cc(Cl)ccc2Cl)n1` [Example 10], for which the IC50 was determined as 10 nM.

As for `Cc1nc([C@H]2O[C@@H](CO)[C@@H](O)[C@@H](n3cc(-c4cc(F)c(Cl)c(F)c4)nn3)[C@@H]2OCC(=O)NCCCCCNC(=O)CO[C@@H]2[C@@H](n3cc(-c4cc(F)c(Cl)c(F)c4)nn3)[C@@H](O)[C@@H](CO)O[C@H]2c2nc(C)nn2-c2cc(Cl)ccc2Cl)n(-c2cc(Cl)ccc2Cl)n1` [Example 11], the IC50 came to 1 nM. Consider `Cc1nc([C@H]2O[C@@H](CO)[C@@H](O)[C@@H](n3cc(-c4cc(F)c(Cl)c(F)c4)nn3)[C@@H]2OCC(=O)NCCCCNC(=O)CO[C@@H]2[C@@H](n3cc(-c4cc(F)c(Cl)c(F)c4)nn3)[C@@H](O)[C@@H](CO)O[C@H]2c2nc(C)nn2-c2cc(Cl)ccc2Cl)n(-c2cc(Cl)ccc2Cl)n1` [Example 12], for which the IC50 was determined as 1 nM. Under `Cc1nc([C@H]2O[C@@H](CO)[C@@H](O)[C@@H](n3cc(-c4cc(F)c(Cl)c(F)c4)nn3)[C@@H]2OCC(=O)NCCNC(=O)CO[C@@H]2[C@@H](n3cc(-c4cc(F)c(Cl)c(F)c4)nn3)[C@@H](O)[C@@H](CO)O[C@H]2c2nc(C)nn2-c2cc(Cl)ccc2Cl)n(-c2cc(Cl)ccc2Cl)n1` [Example 13] stands 1 nM; under `Cc1nc([C@H]2O[C@@H](CO)[C@@H](O)[C@@H](n3cc(-c4cc(F)c(Cl)c(F)c4)nn3)[C@@H]2OCC(=O)N(C)CCCCN(C)C(=O)CO[C@@H]2[C@@H](n3cc(-c4cc(F)c(Cl)c(F)c4)nn3)[C@@H](O)[C@@H](CO)O[C@H]2c2nc(C)nn2-c2cc(Cl)ccc2Cl)n(-c2cc(Cl)ccc2Cl)n1` [Example 15], 5 nM; under `Cc1nc([C@H]2O[C@@H](CO)[C@@H](O)[C@@H](n3cc(-c4ccc(Cl)c(F)c4)nn3)[C@@H]2OCCCCCCCCCCO[C@@H]2[C@@H](n3cc(-c4ccc(Cl)c(F)c4)nn3)[C@@H](O)[C@@H](CO)O[C@H]2c2nc(C)nn2-c2cc(Cl)ccc2Cl)n(-c2cc(Cl)ccc2Cl)n1` [Example 16, (2R,3R,4S,5R,6S)-4-(4-(4-chloro-3-fluorophenyl)-1H-1,2,3-triazol-1-yl)-5-((10-(((2R,3S,4R,5S,6S)-4-(4-(4-chloro-3-fluorophenyl)-1H-1,2,3-triazol-1-yl)-2-(1-(2,5-dichlorophenyl)-3-methyl-1H-1,2,4-triazol-5-yl)-5-hydroxy-6-(hydroxymethyl)tetrahydro-2H-pyran-3-yl)oxy)decyl)oxy)-6-(1-(2,5-dichlorophenyl)-3-methyl-1H-1,2,4-triazol-5-yl)-2-(hydroxymethyl)tetrahydro-2H-pyran-3-ol], 10000 nM. Next, `Cc1nc([C@H]2O[C@@H](CO)[C@@H](O)[C@@H](n3cc(-c4cc(F)c(Cl)c(F)c4)nn3)[C@@H]2OCCCCCCCCO[C@@H]2[C@@H](n3cc(-c4cc(F)c(Cl)c(F)c4)nn3)[C@@H](O)[C@@H](CO)O[C@H]2c2nc(C)nn2-c2cc(Cl)ccc2Cl)n(-c2cc(Cl)ccc2Cl)n1` [Example 17, (2R,3R,4S,5R,6S)-4-(4-(4-chloro-3,5-difluorophenyl)-1H-1,2,3-triazol-1-yl)-5-((8-(((2R,3S,4R,5S,6S)-4-(4-(4-chloro-3,5-difluorophenyl)-1H-1,2,3-triazol-1-yl)-2-(1-(2,5-dichlorophenyl)-3-methyl-1H-1,2,4-triazol-5-yl)-5-hydroxy-6-(hydroxymethyl)tetrahydro-2H-pyran-3-yl)oxy)octyl)oxy)-6-(1-(2,5-dichlorophenyl)-3-methyl-1H-1,2,4-triazol-5-yl)-2-(hydroxymethyl)tetrahydro-2H-pyran-3-ol]: 2000 nM.

As for `Cc1nc(C2OC(CO)C(O)C(n3cc(-c4cc(F)c(F)c(F)c4)nn3)C2OC(=O)NCCCCNC(=O)OC2C(c3nc(C)nn3-c3cc(Cl)ccc3Cl)OC(CO)C(O)C2n2cc(-c3cc(F)c(F)c(F)c3)nn2)n(-c2cc(Cl)ccc2Cl)n1` [Example 18, (2R,3S,4R,5S,6S)-2-(1-(2,5-dichlorophenyl)-3-methyl-11H-1,2,4-triazol-5-yl)-5-hydroxy-6-(hydroxymethyl)-4-(4-(3,4,5-trifluorophenyl)-1H-1,2,3-triazol-1-yl)tetrahydro-2H-pyran-3-yl ((2S,3R,4S,5R,6R)-2-(1-(2,5-dichlorophenyl)-3-methyl-1H-1,2,4-triazol-5-yl)-5-hydroxy-6-(hydroxymethyl)-4-(4-(3,4,5-trifluorophenyl)-1H-1,2,3-triazol-1-yl)tetrahydro-2H-pyran-3-yl) butane-1,4-diyldicarbamate], the IC50 was determined as 19 nM. Under `Cc1nc([C@H]2O[C@@H](CO)[C@@H](O)[C@@H](n3cc(-c4cc(F)c(Cl)c(F)c4)nn3)[C@@H]2OC(=O)NCCCNC(=O)O[C@@H]2[C@@H](n3cc(-c4cc(F)c(Cl)c(F)c4)nn3)[C@@H](O)[C@@H](CO)O[C@H]2c2nc(C)nn2-c2cc(Cl)ccc2Cl)n(-c2cc(Cl)ccc2Cl)n1` [Example 19, (2R,3S,4R,5S,6S)-4-(4-(4-chloro-3,5-difluorophenyl)-1H-1,2,3-triazol-1-yl)-2-(1-(2,5-dichlorophenyl)-3-methyl-1H-1,2,4-triazol-5-yl)-5-hydroxy-6-(hydroxymethyl)tetrahydro-2H-pyran-3-yl ((2S,3R,4S,5R,6R)-4-(4-(4-chloro-3,5-difluorophenyl)-1H-1,2,3-triazol-1-yl)-2-(1-(2,5-dichlorophenyl)-3-methyl-1H-1,2,4-triazol-5-yl)-5-hydroxy-6-(hydroxymethyl)tetrahydro-2H-pyran-3-yl) propane-1,3-diyldicarbamate] stands 110 nM. Next, `Cc1nc([C@H]2O[C@@H](CO)[C@@H](O)[C@@H](n3cc(-c4cc(F)c(Cl)c(F)c4)nn3)[C@@H]2OCC(=O)N(C)CCN(C)C(=O)CO[C@@H]2[C@@H](n3cc(-c4cc(F)c(Cl)c(F)c4)nn3)[C@@H](O)[C@@H](CO)O[C@H]2c2nc(C)nn2-c2cc(Cl)ccc2Cl)n(-c2cc(Cl)ccc2Cl)n1` [Example 21]: 2 nM.

Take `Cc1nc([C@H]2O[C@@H](CO)[C@@H](O)[C@@H](n3cc(-c4cc(F)c(Cl)c(F)c4)nn3)[C@@H]2OCC(=O)N2CCN(C(=O)CO[C@@H]3[C@@H](n4cc(-c5cc(F)c(Cl)c(F)c5)nn4)[C@@H](O)[C@@H](CO)O[C@H]3c3nc(C)nn3-c3cc(Cl)ccc3Cl)CC2)n(-c2cc(Cl)ccc2Cl)n1` [Example 22]: the IC50 amounted to 4 nM. Under `Cc1nc([C@H]2O[C@@H](CO)[C@@H](O)[C@@H](n3cc(-c4cc(F)c(Cl)c(F)c4)nn3)[C@@H]2OCC(=O)N2CCCN(C(=O)CO[C@@H]3[C@@H](n4cc(-c5cc(F)c(Cl)c(F)c5)nn4)[C@@H](O)[C@@H](CO)O[C@H]3c3nc(C)nn3-c3cc(Cl)ccc3Cl)CC2)n(-c2cc(Cl)ccc2Cl)n1` [Example 23] stands 4 nM.

These data come from US12275718B2, “Small molecule inhibitors of galectin-3” (BRISTOL-MYERS SQUIBB COMPANY, priority 2018, dated 2025).
